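In this assay, cells in 96-well plates receive the compound at five concentrations for 48 hours. Endpoints are linearly interpolated between the surrounding concentrations. TGI denotes the concentration required for complete inhibition of growth.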
Assays:
Test in all cases: NCI tumour cell line growth inhibition, 48 h
[1] = test system: IGROV1 ovarian
[2] = test system: OVCAR-4 ovarian
[3] = test system: A498 renal
[4] = test system: HOP-62 NSCLC
[5] = test system: U251 CNS
[6] = test system: SK-MEL-28 melanoma
[7] = test system: UACC-257 melanoma
[8] = test system: HL-60(TB) leukemia
[9] = test system: SF-295 CNS
[10] = test system: COLO 205 colon
[11] = test system: HCC-2998 colon
[12] = test system: MOLT-4 leukemia
[13] = test system: A549 NSCLC
[14] = test system: SNB-75 CNS
[15] = test system: TK-10 renal
[16] = test system: K-562 leukemia
[17] = test system: SNB-19 CNS
[18] = test system: SN12C renal
[19] = test system: HCT-15 colon
[20] = test system: 786-0 renal
[21] = test system: DMS 114 small cell lung
[22] = test system: M19-MEL melanoma
[23] = test system: NCI-H522 lung
[24] = test system: HOP-18 NSCLC
[25] = test system: KM12 colon
[26] = test system: NCI-H460 lung
[27] = test system: SF-539 CNS
[28] = test system: SR leukemia
[29] = test system: ACHN renal
[30] = test system: DMS 273 small cell lung
[31] = test system: UACC-62 melanoma
[32] = test system: SF-268 CNS
[33] = test system: LXFL 529 NSCLC
[34] = test system: NCI-H226 lung
[35] = test system: NCI-H23 lung
[36] = test system: OVCAR-5 ovarian
[37] = test system: LOX IMVI melanoma
[38] = test system: HT29 colon
[39] = test system: MALME-3M melanoma
[40] = test system: SW-620 colon
[41] = test system: UO-31 renal
[42] = test system: RPMI-8226 leukemia
[43] = test system: SK-OV-3 ovarian
[44] = test system: OVCAR-8 ovarian
[45] = test system: CCRF-CEM leukemia
[46] = test system: SK-MEL-5 melanoma
[47] = test system: SNB-78 CNS
[48] = test system: EKVX NSCLC
[49] = test system: HCT-116 colon
[50] = test system: M14 melanoma
[51] = test system: HOP-92 NSCLC
[52] = test system: OVCAR-3 ovarian
[53] = test system: SK-MEL-2 melanoma
[54] = test system: KM20L2 colon
[55] = test system: DLD-1 colon
[56] = test system: CAKI-1 renal
[57] = test system: XF 498 CNS
[58] = test system: RXF 393 renal

Measured: TGI

COc1c(C(=O)O)oc2c(OC)cccc12
not listed: [54] | [55] | [56] | [57] | [58]
> 100 µM: all other assays above

O=C(O)CCCCCOc1cccnc1/C=N/NC1=NCCN1
91.2 µM: [14]
not listed: [21]
> 100 µM: all other assays above

C(=N\OCc1ccccc1)/c1ncccc1C1OCCO1
not listed: [3] | [11] | [34] | [42] | [57]
> 100 µM: all other assays above

Cc1c(C(=O)NCCO)[n+](=O)c2cc(Cl)ccc2n1[O-]
not listed: [23] | [34] | [53] | [56] | [57]
> 100 µM: all other assays above
